In one experiment the target is human IgG (Homo sapiens, UniProt P01857). Description: SPR affinity analysis of IgG-binding peptides on immobilized IgG (BIAcore T200). Also noted: kd: unit not given here. Particulars: for ka / kd: SPR, peptides N-terminally blocked with biotinylated PEG4, NHS group hydrolysed. The method, then: 0.4 M EDC (1-ethyl-3-(3-dimethylaminopropyl)-carbodiimide) and 0.1 M sulfo-NHS (sulfo-N-hydroxysuccinimide) were mixed in equal amounts and then injected onto a CMS sensor chip loaded in BIAcore T200 (GE Healthcare Japan Corp.) for 7 minutes at a flow rate of […] to activate the sensor chip. IgG was immobilized thereonto in an amount of 4000 to 5000 in terms of RU value under conditions of pH 4.0 (10 mM sodium acetate). While a HBS-EP buffer solution (0.01 M HEPES, 0.15 M NaCl, 0.005% Tween 20, and 3 mM EDTA, pH 7.0) was used, binding reaction was monitored by the injection of the peptide at a concentration of 10 nM to 2 μM for 180 seconds at a flow rate of […]. Then, dissociation reaction was assayed by washing with a buffer solution for 600 seconds. Binding parameters were analyzed using BIAevalution T100 software.
Chain of human IgG (P01857 1-328): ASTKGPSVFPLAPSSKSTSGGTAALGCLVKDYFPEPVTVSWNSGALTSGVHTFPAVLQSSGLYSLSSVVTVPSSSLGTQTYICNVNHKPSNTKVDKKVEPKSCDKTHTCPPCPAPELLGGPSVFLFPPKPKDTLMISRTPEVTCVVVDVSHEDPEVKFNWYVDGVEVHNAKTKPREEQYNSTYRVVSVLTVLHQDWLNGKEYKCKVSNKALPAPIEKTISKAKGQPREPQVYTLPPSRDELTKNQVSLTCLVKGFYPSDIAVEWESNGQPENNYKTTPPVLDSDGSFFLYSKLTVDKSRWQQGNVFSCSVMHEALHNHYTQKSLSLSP
Background: SPR reads the build-up and loss of mass on a sensor chip optically.

The next experiment concerns the target T1, hIgG (Homo sapiens, UniProt P01857).
T1 construct: purchased Chugai Pharmaceutical Co., Ltd
Description: ELISA of biotinylated IgG-binding peptide on plate-adsorbed hIgG. The conditions noted are these: peptide unmodified with cross-linking agent. As to the method:
A 0.1 M NaHCO3 solution containing each protein (IgG (Chugai Pharmaceutical Co., Ltd.), IgA (Athens Research & Technology, Inc.), or bovine gelatin (Wako Pure Chemical Industries, Ltd.)) (50 ng (0.33 pmol)/μ1/well) was added to wells of a 96-well microplate (Nunc® MaxiSorp), and the plate was left overnight at room temperature to adsorb each protein onto the surface of the plate. After blocking with 0.5% BSA, a biotinylated IgG-binding peptide modified with DSG (molar ratio: 0, 1, 2, 5, or 10), prepared in the same way as in Example 2 was added to each well. After 1 hour, the reaction was terminated by the addition of 1 M Tris-HCl (pH 7.0) at 3 μL/well. SA-HRP (Vector Laboratories, Inc.) diluted 2000-fold with 0.5% BSA was added thereto at 50 μL/well and reacted at room temperature for 1 hour. Then, the plate was washed five times with 0.1% PBST. Then, a TMB solution (Wako Pure Chemical Industries, Ltd.) was used in the color development of HRP. After 5-minute chromogenic reaction, the absorbance at 450 nm was measured using an ELISA plate reader (model 680 microplate reader (Bio-Rad Laboratories, Inc.)).
The biotinylated IgG-binding peptide modified with DSG was added at a molar ratio of 2 to hIgG (50 ng) immobilized overnight at 4° C. with a 50 ng/50 μL solution. […] The binding was detected in the same way as in (A).
(In general: ELISA stands for enzyme-linked immunosorbent assay.)

T1 sequence (P01857 1-328): as above

As for “GDDCAYHK(DSG-OH)GELVWCTFH-NH2 [Type I(R8K)-DSG-OH]”, on human IgG, the ka is recorded as 3.29E+05 and the kd was found to be 0.1036.
For “GDDCAYHK(DSS-OH)GELVWCTFH-NH2 [Type I(R8K)-DSS-OH]” the same measures were 1.68E+05 and 0.06136.
For GPDCAYHRGELVWCTFH-NH2 [Type I] the same measures were 1.57E+06 and 0.0144.
With GDDCAYHKGELVWCTFH-NH2 [Type I(R8K)], the “binding to hIgG (ELISA)” value at hIgG is “Very weak binding”. Further, on human IgG (R8K substitution versus peptide before substitution), the “decrease of affinity for human IgG as compared with Type I” value is 10 times. At human IgG, the ka was found to be 1.25E+06 and the kd came to 0.195.

The values above are taken from patent publication US12037417B2, “Site-specific radioisotope-labeled antibody using IgG-binding peptide” (Kagoshima University, priority 2016, dated 2024).
